This is an account of results in publication PMC6278366, “Synthesis and Evaluation of Anticancer Activities of Novel C-28 Guanidine-Functionalized Triterpene Acid Derivatives” (Molecules, 2018).

In series [1] the test system is HEK293 (embryonic kidney) cells. Briefly: Cytotoxicity assay (7-AAD viability, flow cytometry), HEK293. The format is cell-based, human. To be noted: Homo sapiens, HEK293, mean ± SE, at least three experiments in duplicate; viable cells. The method, then:
(§1) Cells (Jurkat, K562, U937, HeLa, HEK293 and normal Fibroblasts) were purchased from Russian Cell Culture Collection (Institute of Cytology of the Russian Academy of Sciences, Saint Petersburg, Russia) and cultured according to standard mammalian tissue culture protocols and sterile technique. Human cell lines HEK293 and HeLa were obtained from the HPA Culture Collections (Salisbury, UK). All cell lines used in the study were tested and shown to be free of mycoplasma and viral contamination.
(§2) HEK293, HeLa cell lines and fibroblasts were cultured as monolayers and maintained in Dulbecco’s modified Eagle’s medium (DMEM, Gibco BRL, Waltham, MA, USA) supplemented with 10% foetal bovine serum and 1% penicillin-streptomycin solution at 37 °C in a humidified incubator under a 5% CO2 atmosphere.
(§3) Cells were maintained in RPMI 1640 (Jurkat, K562, U937) (Gibco, Thermo Fisher Scientific, Waltham, MA, USA) supplemented with 4 mM glutamine, 10% FBS (Sigma, Burlington, MA, USA) and 100 units/mL penicillin-streptomycin (Sigma). All types of cells were grown in an atmosphere of 5% CO2 at 37 °C. The cells were subcultures at 2–3 days intervals. Adherent cells (HEK293, HeLa, fibroblasts) were suspended using trypsin/EDTA and counted after they have reached 80% confluency. Cells were then seeded in 24 well plates at 5 × 10^4 cells per well and incubated overnight. Jurkat, K562, U937 cells were subcultured at 2 day intervals with a seeding density of 1 × 10^5 cells per 24 well plates in RPMI with 10% FBS.
(§4) Viability (Live/dead) assessment was performed by staining cells with 7-AAD (7-Aminoactinomycin D) (Biolegend, San Diego, CA, USA). Cells were treated of test compounds with six different concentrations (1, 5, 10, 15, 30 and 60 μM). After treatment, cells were harvested, washed 1–2 times with phosphate-buffered saline (PBS) and centrifuged at 400× g for 5 min. Cell pellets were resuspended in 200 μL of flow cytometry staining buffer (PBS without Ca^2+ and Mg^2+, 2.5% FBS) and stained with 5 μL of 7-AAD staining solutionfor 15 min at room temperature in the dark. Samples were acquired on NovoCyteTM 2000 FlowCytometry System (ACEA, San Diego, CA, USA) equipped with 488 nm argon laser. Detection of 7-AAD emission was collected through a 675/30 nm filter in FL4 channel.

Series [2] deals with Jurkat (T-lymphoblastic leukemia) cells. Put plainly: cells. The format is cell-based. Particulars: Homo sapiens, Jurkat, mean ± SE, at least three experiments in duplicate; viable cells; read-out: IC50 Jurkat. The method, then:
as §1, §3, §4

Series [3] concerns U937 (histiocytic lymphoma) cells. Put plainly: Cytotoxicity assay (7-AAD viability, flow cytometry), U937. The format is cell-based, human. To be noted: Homo sapiens, U-937, mean ± SE, at least three experiments in duplicate; viable cells; read-out: IC50 U937. The method, then:
as §1, §3, §4
(In general: In flow cytometry, cells or beads pass a laser one at a time.)

Series [4] concerns K562 (chronic myeloid leukemia) cells. Put plainly: Cytotoxicity assay (7-AAD viability, flow cytometry), K562. The format is cell-based, human. Particulars: Homo sapiens, K562, mean ± SE, at least three experiments in duplicate; viable cells; read-out: IC50 K562. The procedure: as §1, §3, §4
In another series the test system is normal human fibroblasts. Briefly: Cytotoxicity assay (7-AAD viability, flow cytometry), normal fibroblasts. The format is cell-based. Particulars: Homo sapiens, Fibroblast, mean ± SE, at least three experiments in duplicate. The method, then: as §1, §2, §3
as §4, with “Cells were treated of test compounds with six different concentrations (1, 5, 10, 15, 30 and 60 μM).” left out

For series [5], the system named is HeLa (cervical cancer) cells. Briefly: Cytotoxicity assay (7-AAD viability, flow cytometry), HeLa. The format is cell-based, human. To be noted: Homo sapiens, HeLa, mean ± SE, at least three experiments in duplicate; viable cells. The method, then:
as §1, §2, §3, §4

The structures appear in SMILES notation.

`CC(=O)O[C@H]1CC[C@@]2(C)C(CC[C@]3(C)C2CCC2C4C(C(C)C)CC[C@]4(C(=O)NCCCCN)CC[C@]23C)C1(C)C` (stereo partly drawn) [Compound 6, 3β-N-(4-Aminobuthyl)-3-O-acetyl-lupane-28-amide] showed a melting point of 104 to 106 °C. In series [1], the IC50 was determined as 6.7 ± 0.21 µM. The IC50 in series [2] was determined as 7.7 ± 0.31 µM. The IC50 in series [3] was 4.5 ± 0.43 µM. For the same compound, the IC50 in series [4] is 1.8 ± 0.12 µM. The same compound showed a half-inhibitory concentration (IC50) with normal human fibroblasts of 8.3 ± 0.29 µM. In series [5], this compound came in with an IC50 of 7.1 ± 0.18 µM.

On to `CC(=O)O[C@H]1CC[C@@]2(C)C(CC[C@]3(C)C2CCC2C4C(C(C)C)CC[C@]4(C(=O)NCCCN4CCN(CCCN)CC4)CC[C@]23C)C1(C)C` (stereo partly drawn) [Compound 8a, 3β-N-{[3-(3-Aminopropyl)piperazinyl]propyl}-3-O-acetyl-lupane-28-amide], for which the melting point fell in the range of 119 to 121 °C. In series [1], this compound showed an IC50 of 5.9 ± 0.14 µM. The IC50 in series [2] amounted to 4.5 ± 0.29 µM. For the same compound, in series [3], the IC50 is 8.2 ± 0.13 µM. Also, the IC50 in series [4] was 3 ± 0.19 µM. Inhibition in the series with normal human fibroblasts was half-maximal at 7.3 ± 0.43 µM (IC50). It took 6.1 ± 0.38 µM to reach half-maximal inhibition in series [5] (IC50).

In turn, `CC(=O)O[C@H]1CC[C@@]2(C)C(CC[C@]3(C)C2CCC2C4C(C(C)C)CC[C@]4(C(=O)NCCN)CC[C@]23C)C1(C)C` (stereo partly drawn) [Compound 5, 3β-N-(2-Aminoethyl)-3-O-acetyl-lupane-28-amide] gave a melting point of 120 to 122 °C. The compound further had an IC50 in series [1] of 4.8 ± 0.25 µM. Besides, the concentration for half-maximal inhibition (IC50) in series [2] is 2.3 ± 0.11 µM. Besides, the IC50 in series [3] came out at 1.9 ± 0.34 µM. In addition, the IC50 in series [4] amounted to 2.8 ± 0.23 µM. In addition, the midpoint of inhibition in the series on normal human fibroblasts, the IC50, lay at 5.3 ± 0.27 µM. In addition, the IC50 in series [5] worked out at 3.9 ± 0.41 µM.

`CC(C)C1CC[C@]2(C(=O)NCCCCN)CC[C@]3(C)C(CCC4[C@@]5(C)CCC(=O)C(C)(C)C5CC[C@]43C)C12` (stereo partly shown) [Compound 4, N-(4-Aminobuthyl)-3-oxolupane-28-amide] came in with a melting point of 170 to 172 °C. For the same compound, in series [1], the IC50 was 2.4 ± 0.35 µM. In series [2], the IC50 worked out at 1.4 ± 0.41 µM. Besides, in series [3], the half-inhibitory concentration (IC50) turned out to be 1.7 ± 0.36 µM. For the same compound, the IC50 in series [4] worked out at 1.3 ± 0.49 µM. In addition, half-maximal inhibition with normal human fibroblasts (IC50) was put at 3.4 ± 0.19 µM. For the same compound, the IC50 in series [5] came to 2.8 ± 0.28 µM.

Broadly, the IC50 is the concentration at which inhibition is half-maximal. As a reminder, the melting point is the temperature of the solid-liquid transition.
